Among the data in ChEMBL document CHEMBL4765403, “Augmentation of the antitumor effects of PARP inhibitors in triple-negative breast cancer via degradation by hydrophobic tagging modulation” (Eur J Med Chem, 2020) are fold change (FC), IC50 and Activity values, retold here.

In assay [1] the target is Poly [ADP-ribose] polymerase 1 (Homo sapiens) (UniProt P09874). The assay is described as follows: Induction of PARP1 degradation in triple-negative human MDA-MB-231 cells assessed as fold change in PARP1 protein expression at 2.5 uM incubated for 48 hrs by Western blot analysis relative to control. The format is cell-based. (In general: Immunoblotting shows a protein as a band on a membrane.)

For assay [2] the target is unchanged. Briefly: Induction of PARP1 degradation in triple negative human MDA-MB-231 cells assessed as fold change in PARP1 protein expression at 5 uM incubated for 48 hrs by Western blot analysis relative to control. In kind it is cell-based.
Assay [3] shares this target. Briefly: Induction of PARP1 degradation in triple-negative human MDA-MB-231 cells assessed as fold change in PARP1 protein expression at 10 uM incubated for 48 hrs by Western blot analysis relative to control. In kind it is cell-based.
Assay [4] relates to MDA-MB-231. Briefly: Cytotoxicity against triple-negative human MDA-MB-231 cells assessed as reduction in cell viability measured after 48 hrs by CCK8 assay. In kind it is functional, cell-based. The note with it: MDA-MB-231, 48 h. (In general: Tetrazolium dyes change colour on reduction, which living cells bring about.)
The test system of assay [5] is MDA-MB-231. The assay is described as follows: Cytotoxicity against human MDA-MB-231 cells assessed as reduction in cell viability measured after 96 hrs by CCK8 assay. The note with it: MDA-MB-231, 96 h. In kind it is functional, cell-based.
Assay [6] relates to MDA-MB-231. Briefly: Induction of endoplasmic reticulum stress in human MDA-MB-231 cells assessed as upregulation of CHOP protein expression at 5 uM incubated for 48 to 72 hrs by western blot analysis. In kind it is functional, cell-based. The note with it: time 48-72 hrs.
Assay [7] concerns MDA-MB-231. The assay is described as follows: Induction of endoplasmic reticulum stress in human MDA-MB-231 cells assessed as upregulation of XBP-1s protein expression at 5 uM incubated for 48 to 72 hrs by western blot analysis. In kind it is functional, cell-based. The note with it: time 48-72 hrs.
Assay [8] deals with MDA-MB-231. Briefly: Induction of autophagy in human MDA-MB-231 cells assessed as upregulation of LC3B protein expression at 5 uM incubated for 48 to 72 hrs by western blot analysis. The format is functional, cell-based. The note with it: time 48-72 hrs.

Calls of active or inactive are those of the source. The calls are words filed in the database; no cut-off is given here.

Chain of Poly [ADP-ribose] polymerase 1 (Homo sapiens) (P09874 whole entry): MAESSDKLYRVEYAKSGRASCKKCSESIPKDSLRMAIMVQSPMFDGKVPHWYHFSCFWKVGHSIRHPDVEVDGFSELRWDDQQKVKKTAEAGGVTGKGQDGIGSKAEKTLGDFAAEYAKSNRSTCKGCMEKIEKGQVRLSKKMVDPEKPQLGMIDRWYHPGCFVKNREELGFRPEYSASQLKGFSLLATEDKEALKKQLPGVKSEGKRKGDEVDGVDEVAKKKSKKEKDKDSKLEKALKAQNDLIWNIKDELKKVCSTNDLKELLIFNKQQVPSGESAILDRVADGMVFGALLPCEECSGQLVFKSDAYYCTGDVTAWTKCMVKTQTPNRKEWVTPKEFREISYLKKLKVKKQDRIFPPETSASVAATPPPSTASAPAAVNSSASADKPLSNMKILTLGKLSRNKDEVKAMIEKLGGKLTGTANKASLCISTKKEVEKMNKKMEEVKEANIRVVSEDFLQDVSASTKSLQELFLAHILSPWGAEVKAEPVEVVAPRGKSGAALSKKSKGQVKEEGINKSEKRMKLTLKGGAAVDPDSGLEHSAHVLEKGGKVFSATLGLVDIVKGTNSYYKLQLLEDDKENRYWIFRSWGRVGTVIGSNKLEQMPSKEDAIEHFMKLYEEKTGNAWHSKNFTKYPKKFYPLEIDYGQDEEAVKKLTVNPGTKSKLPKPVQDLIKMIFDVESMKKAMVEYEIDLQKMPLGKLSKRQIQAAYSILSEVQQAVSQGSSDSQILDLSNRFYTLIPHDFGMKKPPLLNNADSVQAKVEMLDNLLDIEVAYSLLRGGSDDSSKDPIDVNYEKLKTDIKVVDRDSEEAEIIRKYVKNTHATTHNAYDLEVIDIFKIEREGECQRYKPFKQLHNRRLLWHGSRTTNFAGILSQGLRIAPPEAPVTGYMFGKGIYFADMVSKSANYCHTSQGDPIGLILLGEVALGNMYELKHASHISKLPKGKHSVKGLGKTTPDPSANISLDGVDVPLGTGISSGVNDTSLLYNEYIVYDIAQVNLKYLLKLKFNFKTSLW

Usually IC50 stands for the midpoint of a concentration-inhibition curve. Turning to `O=C(NCCCCCCN1CCN(C(=O)c2cc(Cc3n[nH]c(=O)c4ccccc34)ccc2F)CC1)C(C1CCCCC1)C1CCCCC1`, the values for the fold change (FC) in assay [1], in assay [2] and in assay [3] were 0.9, 0.8 and 0.3, respectively. For the same compound, the IC50 with MDA-MB-231 [4] was greater than 50 µM.
`O=C(CC12CC3CC(CC(C3)C1)C2)N1CCN(C(=O)c2cc(Cc3n[nH]c(=O)c4ccccc34)ccc2F)CC1`: the results for the fold change (FC) in assay [1], in assay [2] and in assay [3] were 0.9, 0.7 and 0.8, respectively.
Regarding `O=C(c1cc(Cc2n[nH]c(=O)c3ccccc23)ccc1F)N1CCN(C(=O)C(c2ccccc2)c2ccccc2)CC1`, the fold change (FC) in assay [1] amounted to 1; in assay [2] it was 1; in assay [3], 1.1.
For `O=C(CC12CC3CC(CC(C3)C1)C2)NCCN1CCN(C(=O)c2cc(Cc3n[nH]c(=O)c4ccccc34)ccc2F)CC1`, the fold change (FC) in assay [1] amounted to 1.1; in assay [2] it was 1.2; in assay [3], 1.3.
On to `O=C(CC12CC3CC(CC(C3)C1)C2)NCCCCN1CCN(C(=O)c2cc(Cc3n[nH]c(=O)c4ccccc34)ccc2F)CC1`, for which the fold change (FC) in assay [1] came out at 1.1; in assay [2], 1.2; in assay [3], 1.1.
As to `CC(C)Cc1ccc([C@H](C)C(=O)NCCCCN2CCN(C(=O)c3cc(Cc4n[nH]c(=O)c5ccccc45)ccc3F)CC2)cc1`, the figures for the fold change (FC) in assay [1], in assay [2] and in assay [3] were 0.9, 1.2 and 1.7, respectively.
`O=C(CC1c2ccccc2-c2ccccc21)NCCCCN1CCN(C(=O)c2cc(Cc3n[nH]c(=O)c4ccccc34)ccc2F)CC1`: the fold change (FC) in assay [1], in assay [2] and in assay [3] was 0.5 in each case. The IC50 in the assay with MDA-MB-231 [4] is greater than 50 µM.
With `O=C(NCCN1CCN(C(=O)c2cc(Cc3n[nH]c(=O)c4ccccc34)ccc2F)CC1)C(C1CCCCC1)C1CCCCC1`, the fold change (FC) in assay [1], in assay [2] and in assay [3] was 0.9 in each case.
As to `CC(C)Cc1ccc([C@H](C)C(=O)N2CCN(C(=O)c3cc(Cc4n[nH]c(=O)c5ccccc45)ccc3F)CC2)cc1`, the fold change (FC) in assay [1] is 0.8; in assay [2], 1; in assay [3], 0.8.
Turning to `O=C(NCCCCCCN1CCN(C(=O)c2cc(Cc3n[nH]c(=O)c4ccccc34)ccc2F)CC1)C(c1ccccc1)c1ccccc1`, the fold change (FC) in assay [1] was found to be 1.4; in assay [2] it was 1.5; in assay [3], 1.3.
For the compound `O=C(CC12CC3CC(CC(C3)C1)C2)NCCCCCCN1CCN(C(=O)c2cc(Cc3n[nH]c(=O)c4ccccc34)ccc2F)CC1`, the fold change (FC) in assay [1] was found to be 0.9; in assay [2], 1.2; in assay [3] it was 0.8.
For the compound `O=C(c1cc(Cc2n[nH]c(=O)c3ccccc23)ccc1F)N1CCN(C(=O)C(C2CCCCC2)C2CCCCC2)CC1`, the fold change (FC) is 0.6 in assay [1], 0.7 in assay [2] and 0.7 in assay [3].
For `CC(C)Cc1ccc([C@H](C)C(=O)NCCN2CCN(C(=O)c3cc(Cc4n[nH]c(=O)c5ccccc45)ccc3F)CC2)cc1`, the values for the fold change (FC) in assay [1], in assay [2] and in assay [3] were 0.9, 0.8 and 0.7, respectively.
With `c1ccc2c(c1)Cc1ccccc1-2` [FLUORENE], the IC50 in the assay with MDA-MB-231 [4] is greater than 50 µM.
Consider `O=C(NCCCCN1CCN(C(=O)c2cc(Cc3n[nH]c(=O)c4ccccc34)ccc2F)CC1)C(C1CCCCC1)C1CCCCC1`, for which the figures for the fold change (FC) in assay [1], in assay [2] and in assay [3] were 1.1, 0.8 and 1.2, respectively.
Consider `CC(C)Cc1ccc([C@H](C)C(=O)NCCCCCCN2CCN(C(=O)c3cc(Cc4n[nH]c(=O)c5ccccc45)ccc3F)CC2)cc1`, for which the results for the fold change (FC) in assay [1], in assay [2] and in assay [3] were 1.2, 0.7 and 0.3, respectively. Further, the IC50 in the assay with MDA-MB-231 [4] is 15.9 µM.
Consider `O=C(CC1c2ccccc2-c2ccccc21)NCCCCCCN1CCN(C(=O)c2cc(Cc3n[nH]c(=O)c4ccccc34)ccc2F)CC1`, for which the fold change (FC) came out at 0.5 in assay [1], 0.5 in assay [2] and 0.4 in assay [3].
For the compound `O=C(c1cc(Cc2n[nH]c(=O)c3ccccc23)ccc1F)N1CCN(C(=O)C2CC2)CC1` [OLAPARIB], the IC50 in the assay on MDA-MB-231 [5] was determined as 32.4 µM. The result in the assay on MDA-MB-231 [6], with MDA-MB-231 [7] and in the assay on MDA-MB-231 [8] was inactive.
Turning to `O=C(NCCN1CCN(C(=O)c2cc(Cc3n[nH]c(=O)c4ccccc34)ccc2F)CC1)C(c1ccccc1)c1ccccc1`, the figures for the fold change (FC) in assay [1], in assay [2] and in assay [3] were 1.3, 1.1 and 1.3, respectively.
As for `O=C(CC1c2ccccc2-c2ccccc21)NCCN1CCN(C(=O)c2cc(Cc3n[nH]c(=O)c4ccccc34)ccc2F)CC1`, the fold change (FC) was 0.4 in assay [1], 0.3 in assay [2] and 0.4 in assay [3]. For the same compound, the IC50 in the assay on MDA-MB-231 [4] was 26.2 µM.
`O=C(NCCCCN1CCN(C(=O)c2cc(Cc3n[nH]c(=O)c4ccccc34)ccc2F)CC1)C(c1ccccc1)c1ccccc1`: the fold change (FC) worked out at 1.4 in assay [1], 1.6 in assay [2] and 1.2 in assay [3].
